According to PubChem BioAssay AID2124 (Sanford-Burnham Center for Chemical Genomics, 2009):
Results filed as inconclusive are left out. Active and inactive are the calls of the source. The rule behind the calls is not given here; tested in MIN6 cells.

What was measured:
[1] = cell-permeable autofluorescent compounds in GFP channel, dose response, artefact control, imaging, high-content imaging (AID 2124); conditions: cells, GFP-channel autofluorescence, high-content imaging, at 10 µM; for z-score: stronger effect = higher value;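 for cell count: cells exposed to compound for 48 hours before fixing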;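 for z-score: cells exposed to compound for 48 hours before fixing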
[2] = system: cells, GFP-channel autofluorescence, high-content imaging; assay: as above

## CC(=O)c1c(C)[nH]c(-c2ccccc2)nc1=S
[1]
  cell count: 3120 cells
[2]
  EC50: 2.37 µM

## CN1CC=C2C(C#N)=C(N)C(C#N)(C#N)C(c3ccsc3)C2C1 (configuration not stated)
[1]
  cell count: 2400 cells
[2]
  EC50: > 16 µM (inactive)

## N#Cc1cccc(NC(=O)CSc2ccc3c4c(cccc24)C(=O)c2ccccc2-3)c1
[1]
  cell count: 3090 cells
[2]
  EC50: 4.73 µM

## CN1CC=C2C(C#N)=C(N)C(C#N)(C#N)C(Cc3ccccc3)C2C1 (configuration not stated)
[1]
  cell count: 3290 cells
[2]
  EC50: 13.7 µM (inactive)

## Cc1cc(N2CCCC2)ccc1/C=C1\NC(=S)N(C)C1=O
[1]
  cell count: 2440 cells
[2]
  EC50: 7.7 µM

## COc1ccc(C2C(C(C)=O)=C(C)N=c3s/c(=C\c4cc(C)n(C)c4C)c(=O)n32)c(OC)c1 (configuration not stated)
[1]
  cell count: 3650 cells
[2]
  EC50: 6.06 µM

## O=[N+]([O-])c1ccc(N/N=C/c2ccc[nH]2)cc1
[1]
  cell count: 841 cells
[2]
  EC50: 4.32 µM

## Cc1ccnc(N/C=C(\C#N)c2nc(-c3cccc(Br)c3)cs2)c1
[1]
  cell count: 2880 cells
[2]
  EC50: 8.87 µM

## COc1ccc2c(c1)NC(c1ccc(N(C)C)cc1)c1cccn1-2 (configuration not stated)
[1]
  cell count: 2940 cells
[2]
  EC50: 3.12 µM

## COc1ccc(C(=O)/C=C/c2ccc(N(C)C)cc2)c(OC)c1
[1]
  cell count: 2380 cells
[2]
  EC50: 9.89 µM

## CC(C)NC(=O)/C(C#N)=C/c1ccc(N(C)C)o1
[1]
  cell count: 3230 cells
[2]
  EC50: 14.3 µM (inactive)

## O=c1c(Cl)c2oc3ccccc3nc-2c2ccccc12
[1]
  cell count: 2670 cells
[2]
  EC50: 6.42 µM

## O=C(O)c1ccccc1N/N=C/c1c(Sc2nnnn2-c2ccccc2)nc2ccccn2c1=O
[1]
  cell count: 3260 cells
[2]
  EC50: 10.7 µM (inactive)

## CCOC(=O)Cc1csc(NC(=O)c2sc3nc4c(C)cc(C)cc4cc3c2N)n1
[1]
  cell count: 2560 cells
[2]
  EC50: 10.9 µM (inactive)

## N#C/C(=C/c1ccc(N2CCCCC2)o1)c1cccc(F)c1
[1]
  cell count: 1730 cells
[2]
  EC50: 5.32 µM

## CCN1CC=C2C(C1)C(c1ccc(Cl)s1)C(C#N)=C(N)C2(C#N)C#N (configuration not stated)
[1]
  cell count: 3020 cells
[2]
  EC50: 11.5 µM (inactive)

## N#CC1=C(N)C(C#N)(C#N)[C@H](c2ccoc2)[C@H]2CN(Cc3ccccc3)CC=C12
[1]
  cell count: 2630 cells
[2]
  EC50: 10.3 µM (inactive)

## CCN1CCc2c(sc(NC(=S)NC(=O)c3ccc(Cl)cc3)c2C(N)=O)C1
[1]
  cell count: 3040 cells
[2]
  EC50: 6.61 µM

## COc1ccc2c(C)cc(SCC(=O)N(C)C3CCS(=O)(=O)C3)nc2c1 (configuration not stated)
[1]
  cell count: 3270 cells
[2]
  EC50: 9.63 µM

## Cc1cccn2c(=O)c(/C=C3\SC(=S)N(CC(C)C)C3=O)c(NCCCOC(C)C)nc12
[1]
  cell count: 2810 cells
[2]
  EC50: > 16 µM (inactive)

## Cc1nonc1NC(=O)CSc1nc2c(C)cccc2cc1C#N
[1]
  cell count: 3270 cells
[2]
  EC50: 9.41 µM

## Cc1cc(N2CCCC2)ccc1/C=C1/C(=O)N(C)C(=S)N1C
[1]
  cell count: 2940 cells
[2]
  EC50: 7.11 µM

## COc1cc(N2CCCC2)c(OC)cc1/C=C(/C#N)c1cccc(F)c1
[1]
  cell count: 2910 cells
[2]
  EC50: 6.47 µM

## CCCCn1nc(-c2ccccc2)c2nc3ccccc3nc21
[1]
  cell count: 3250 cells
[2]
  EC50: 13.8 µM (inactive)

## CCCN1C=CC(=CC=C(C#N)C#N)C=C1
[1]
  cell count: 3220 cells
[2]
  EC50: 7.84 µM

## COc1cc2c3nnc(-c4ccc(F)cc4)c-3cn(Cc3ccccc3)c2cc1OC
[1]
  cell count: 338 cells
[2]
  EC50: 2.58 µM

## CCN1CC=C2C(C#N)=C(N)C(C#N)(C#N)C(c3cc(Cl)ccc3Cl)C2C1 (configuration not stated)
[1]
  cell count: 2980 cells
[2]
  EC50: 12.8 µM (inactive)

## Cc1nn(C)cc1N1C(=O)c2cccc3c(N)ccc(c23)C1=O
[1]
  cell count: 2940 cells
[2]
  EC50: > 16 µM (inactive)

## CCN(CC)c1ccc(/C=C/C(=O)c2ccc(Br)cc2)cc1
[1]
  cell count: 2880 cells
[2]
  EC50: 3.67 µM

## CN1CCS/C1=C/C=C1/SC(=S)N(Cc2ccccc2)C1=O
[1]
  cell count: 2970 cells
[2]
  EC50: 8.87 µM

## Cn1c(/C(C#N)=C/c2ccc(-c3ccc(S(N)(=O)=O)cc3)o2)nc2ccccc21
[1]
  cell count: 2680 cells
[2]
  EC50: 8.08 µM

## CCOC(=O)c1sc2cc([N+](=O)[O-])cc(SCC(C)C)c2c1N
[1]
  cell count: 3070 cells
[2]
  EC50: 1.24 µM

## CCN(CC)c1ccc2cc(/C(N)=N/NC(=O)c3cccs3)c(=O)oc2c1
[1]
  cell count: 3050 cells
[2]
  EC50: 8.97 µM

## Cc1oc(C)c2c(=O)ccc3c(c12)OC(N)=C(C#N)C3c1ccccc1Cl (configuration not stated)
[1]
  cell count: 3240 cells
[2]
  EC50: 14.8 µM (inactive)

## Cc1ccc(CNc2ccc3c(c2)OCO3)cc1
[1]
  cell count: 2720 cells
[2]
  EC50: 6.18 µM

## CCCCN1C(=O)/C(=C/C=C2\N(C)c3ccccc3C2(C)C)SC1=S
[1]
  cell count: 2910 cells
[2]
  EC50: 2.65 µM

## COc1ccc(CN2C(=O)/C(=C/c3ccc(-c4ccc(Cl)c(C(=O)O)c4)o3)SC2=S)cc1
[1]
  cell count: 3020 cells
[2]
  EC50: > 16 µM (inactive)

## Cc1ccc(NS(=O)(=O)c2cc([N+](=O)[O-])ccc2N/N=C/c2sc(N3CCOCC3)nc2-c2ccccc2)c(C)c1
[1]
  cell count: 2790 cells
[2]
  EC50: 4.45 µM

## CC(=O)n1c(C=Nc2ccccc2)c(O)c2ccccc21
[1]
  cell count: 3060 cells
[2]
  EC50: 8.96 µM

## CCCN1C(=O)/C(=C\C=C2\N(CC)c3ccccc3C2(C)C)SC1=S
[1]
  cell count: 2900 cells
[2]
  EC50: 7.93 µM

## O=C(/C=C/c1ccc(N2CCC(c3ccccc3)=N2)cc1)c1ccccc1
[1]
  cell count: 2900 cells
[2]
  EC50: 5.99 µM

## CCOC(=O)CN1C(=O)S/C(=C/c2ccc(N3CCCCC3)o2)C1=O
[1]
  cell count: 3180 cells
[2]
  EC50: 7.22 µM

## Cc1c2ccccc2nc2c(F)c(NC(C)C)c(F)c(F)c12
[1]
  cell count: 2550 cells
[2]
  EC50: 9.12 µM

## O=[N+]([O-])c1ccc(/C=C/C2=NN(c3ccccc3)C(c3ccco3)C2)o1 (configuration not stated)
[1]
  cell count: 3240 cells
[2]
  EC50: 3.87 µM

## Cc1ccc(S(=O)(=O)CCSc2nc(C)cc(C(F)(F)F)c2C#N)cc1
[1]
  cell count: 2460 cells
[2]
  EC50: 7.21 µM

## CCN(CC)c1ccc2cc(C(=O)Nc3ccccn3)c(=O)oc2c1
[1]
  cell count: 3080 cells
[2]
  EC50: 5.37 µM

## COc1cccc2sc(NNC(=O)C3=COCCO3)nc12
[1]
  cell count: 3320 cells
[2]
  EC50: 8.52 µM

## CCCN1C=CC(=C/C=C(\C#N)C(=O)OCC)C=C1
[1]
  cell count: 2900 cells
[2]
  EC50: 6.81 µM

## CCOC(=O)N1CCN(/C=C(\C#N)c2nc3ccccc3s2)CC1
[1]
  cell count: 2980 cells
[2]
  EC50: 11.7 µM (inactive)

## CC(=O)Nc1cccc(C(=O)/C=C/c2ccc(N(C)C)cc2)c1
[1]
  cell count: 2940 cells
[2]
  EC50: 12 µM (inactive)

## N#C/C(=C\c1ccc(N2CCOCC2)o1)c1ccccc1
[1]
  cell count: 2130 cells
[2]
  EC50: > 16 µM (inactive)

## CN1C(=O)C(=Cc2ccc(N3CCCCC3)o2)C(=O)N(C)C1=S
[1]
  cell count: 2940 cells
[2]
  EC50: > 16 µM (inactive)

## CCCCOc1ccc(-c2cc(C(F)(F)F)c(C#N)c(SCC(=O)O)n2)cc1
[1]
  cell count: 3060 cells
[2]
  EC50: 12.3 µM (inactive)

## CC(=O)c1cc(NC(=O)c2ccc(Cl)cc2)c(=O)oc1/C=C/N(C)C
[1]
  cell count: 2840 cells
[2]
  EC50: 9.14 µM

## Nc1c(C(=O)Nc2nc3ccccc3s2)sc2nc(-c3cccs3)ccc12
[1]
  cell count: 217 cells
[2]
  EC50: 8.63 µM

## COc1ccc(/C=C2\C(=O)NC(=S)N2C(=O)c2ccc(F)cc2)cc1
[1]
  cell count: 2980 cells
[2]
  EC50: > 16 µM (inactive)

## Cc1cc2nc3c(=O)n(C4CCCCC4)c(=O)[nH]c3nc2cc1N
[1]
  cell count: 3150 cells
[2]
  EC50: 11.8 µM (inactive)

## COc1cc([N+](=O)[O-])ccc1-c1ccc(/C=N/NC(N)=O)o1
[1]
  z-score: -0.34 (inactive)
  cell count: 2860 cells

## CC1CC(C)CN(C(=O)c2cccc3c2-c2ccccc2C3=O)C1 (configuration not stated)
[1]
  z-score: -0.38 (inactive)
  cell count: 3240 cells

## COc1ccc(NC(=O)CSc2nnc(-c3cccs3)n2C)cc1OC
[1]
  z-score: -0.39 (inactive)
  cell count: 2880 cells

## COc1cc2c3nnc(-c4ccc(F)cc4)c-3cn(Cc3ccc(F)cc3)c2cc1OC
[1]
  z-score: 2.53
  cell count: 274 cells

## CC(=O)c1ccc2cccc3c2c1N=CN3C
[1]
  z-score: -0.23 (inactive)
  cell count: 3230 cells

## O=C(Cn1ncn2c(cc3ccccc32)c1=O)NCc1ccco1
[1]
  z-score: -0.39 (inactive)
  cell count: 2610 cells

## CC1=NNC(=O)C1CCC(=O)N/N=C/c1ccc(C)cc1 (configuration not stated)
[1]
  z-score: -0.39 (inactive)
  cell count: 3320 cells

## COc1cc(N2CCCC2)c(OC)cc1/C=C(/C#N)c1cccc(Br)c1
[1]
  z-score: 0.19
  cell count: 3340 cells

## O=C(NCCCN1CCCCCC1)C1CC(=O)N(C2CCCC2)C1 (configuration not stated)
[1]
  z-score: -0.33 (inactive)
  cell count: 3260 cells

## O=c1c([N+](=O)[O-])cccn1Cc1ccc(F)cc1Cl
[1]
  z-score: -0.38 (inactive)
  cell count: 2960 cells

## CCN(CC)c1ccc(C=C(c2nnnn2-c2ccccc2)c2nnnn2-c2ccccc2)cc1
[1]
  z-score: -0.26 (inactive)
  cell count: 2370 cells

## Cc1nc(NC(=O)COC(=O)CCS(=O)(=O)c2ccccc2Cl)c(Cl)cc1Cl
[1]
  z-score: -0.39 (inactive)
  cell count: 3210 cells

## COc1cccc(NC(=O)N2CCN(c3nnnn3-c3ccccc3)CC2)c1
[1]
  z-score: -0.33 (inactive)
  cell count: 2880 cells

## Cc1cc(C)n(-c2ccc(C(=O)OCC(=O)N(CC(C)C)C3CCS(=O)(=O)C3)cc2)n1 (configuration not stated)
[1]
  z-score: -0.33 (inactive)
  cell count: 3480 cells

## CCc1cccc2cc3c(N)c(C(=O)Nc4ccc(S(=O)(=O)N5CCCC5)cc4)sc3nc12
[1]
  z-score: 0.3
  cell count: 2430 cells

## COc1ccc(N(CCN2C(=O)c3ccccc3C2=O)C(=O)c2cccc([N+](=O)[O-])c2)cc1
[1]
  z-score: -0.25 (inactive)
  cell count: 2790 cells

## O=Cc1sc(Nc2ccccc2)nc1Cl
[1]
  z-score: -0.31 (inactive)
  cell count: 3150 cells

## O=C(Nc1ccc(C2CCCCC2)cc1)C1CCCN(c2ncccn2)C1 (configuration not stated)
[1]
  z-score: -0.38 (inactive)
  cell count: 2990 cells

## N#C/C(=C/c1ccc(-c2ccccc2)o1)c1nc(-c2cccs2)cs1
[1]
  z-score: 0.88
  cell count: 3200 cells

## Cc1ccc(-n2c(Cc3cccs3)nnc2SCC(=O)OC(C)C)cc1
[1]
  z-score: -0.38 (inactive)
  cell count: 2980 cells

## CCCSc1nc2sc3c(c2c(=O)[nH]1)CCN(Cc1ccccc1)C3
[1]
  z-score: -0.3 (inactive)
  cell count: 3160 cells

## O=C(CNC(=O)c1ccco1)OCC(=O)c1ccccc1
[1]
  z-score: -0.33 (inactive)
  cell count: 3180 cells

## Cc1noc(C)c1CS(=O)(=O)c1ccc(Br)cc1
[1]
  z-score: -0.26 (inactive)
  cell count: 2900 cells

## O=c1ccnc(Nc2ccc3c(c2)OCCO3)[nH]1
[1]
  z-score: -0.39 (inactive)
  cell count: 2860 cells
